Experimental findings from patent publication US20230265116A1, “DEGRADATION OF (EGFR) BY CONJUGATION OF EGFR INHIBITORS WITH E3 LIGASE LIGAND AND METHODS OF USE” (BEIGENE, LTD., priority 2020, published 2023) are described below.

For experiment [1], the system named is EGFR Del19/T790M/C797S (H1975-clone #28). The experiment can be described thus: EGFR degradation HTRF assay, H1975-clone #28 DTC cells. It counts as cell-based. Conditions: H1975 # 28 DTC cells; for DC50: EGFR degradation, IC50 (DC50) from curve fit, read-out: DC50(nM) H1975 # 28 DTC; for Dmax (%) H1975 # 28 DTC: maximum percentage of inhibition (degradation). An outline of the steps:
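Lentiviral Del19/T790M/C797S (clone #28) or Del19/C797S (clone #23) EGFR expressed in H1975 with endogenous EGFR knocked out. Cells treated 16 h, 37 °C, 8 doses, 5-fold from 10 uM top, 0.2% DMSO; EGFR read by HTRF after lysis. Degradation % vs DMSO control; DC50, Dmax from four-parameter fit.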

Experiment [2] has as its target T1, EGFR L858R/T790M/C797S (BaF3-LTC cells) (Homo sapiens, UniProt P00533, C797S/L858R/T790M).
T1 construct: expressed in transfected cells; host or cells: BaF3
Put plainly: EGFR degradation HTRF assay, BaF3-LTC cells. The following applies: BaF3-LTC cells; for DC50: EGFR degradation, IC50 (DC50) from curve fit, read-out: DC50(nM) BaF3-LTC; for Dmax: maximum percentage of inhibition (degradation), read-out: Dmax (%) BaF3-LTC. The class given is cell-based. In short, it runs like this:
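EGFR remaining after a 16 h, 37 °C exposure (8 doses, 5-fold steps from 10 uM final, 0.2% DMSO) was quantified by HTRF antibodies in cell lysate. Percent inhibition relative to DMSO control was fitted by four-parameter logistic to give DC50; Dmax denotes maximal degradation.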

T1 sequence (P00533 25-1210 T790M/C797S/L858R): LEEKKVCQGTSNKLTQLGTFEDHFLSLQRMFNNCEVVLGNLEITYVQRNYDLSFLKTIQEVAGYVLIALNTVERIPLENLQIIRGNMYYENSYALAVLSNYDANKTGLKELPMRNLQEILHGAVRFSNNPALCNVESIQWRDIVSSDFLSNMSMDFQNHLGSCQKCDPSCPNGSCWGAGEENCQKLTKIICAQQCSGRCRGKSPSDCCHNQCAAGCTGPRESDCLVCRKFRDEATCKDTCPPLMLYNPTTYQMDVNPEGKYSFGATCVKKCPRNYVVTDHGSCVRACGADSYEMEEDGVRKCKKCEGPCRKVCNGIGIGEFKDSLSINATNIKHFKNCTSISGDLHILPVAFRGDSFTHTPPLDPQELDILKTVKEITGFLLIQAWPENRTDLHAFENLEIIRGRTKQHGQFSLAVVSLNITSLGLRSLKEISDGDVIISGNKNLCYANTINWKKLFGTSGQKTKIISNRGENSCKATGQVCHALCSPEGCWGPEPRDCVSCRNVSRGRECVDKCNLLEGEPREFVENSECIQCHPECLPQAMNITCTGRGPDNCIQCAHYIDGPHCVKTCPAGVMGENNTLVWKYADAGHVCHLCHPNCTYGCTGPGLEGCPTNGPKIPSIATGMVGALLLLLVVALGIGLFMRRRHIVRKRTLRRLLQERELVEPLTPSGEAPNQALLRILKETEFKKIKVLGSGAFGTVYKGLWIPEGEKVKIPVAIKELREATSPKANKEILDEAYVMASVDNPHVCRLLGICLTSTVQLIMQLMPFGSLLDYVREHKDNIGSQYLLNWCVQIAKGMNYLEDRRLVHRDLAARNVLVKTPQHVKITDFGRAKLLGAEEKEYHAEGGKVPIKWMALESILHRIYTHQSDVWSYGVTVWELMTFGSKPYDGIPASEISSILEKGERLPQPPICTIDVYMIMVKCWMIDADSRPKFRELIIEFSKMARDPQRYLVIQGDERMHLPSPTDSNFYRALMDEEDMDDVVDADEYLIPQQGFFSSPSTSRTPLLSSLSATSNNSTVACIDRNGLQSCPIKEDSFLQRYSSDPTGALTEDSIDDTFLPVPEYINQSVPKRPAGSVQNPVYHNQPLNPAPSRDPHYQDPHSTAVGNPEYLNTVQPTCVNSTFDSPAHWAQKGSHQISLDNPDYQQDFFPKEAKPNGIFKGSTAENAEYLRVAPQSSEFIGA

As to `CCOc1cc(N2CCC(N3CCN(CCc4cccc5c4n(CC)c(=O)n5C4CCC(=O)NC4=O)CC3)CC2)c(CC)cc1Nc1ncc(Br)c(Nc2ccc3nc(CC)ncc3c2P(C)(C)=O)n1` (stereo not drawn) [Example 737, 3-(4-(2-(4-(1-(4-((5-bromo-4-((5-(dimethylphosphoryl)-2-ethylquinazolin-6-yl)amino)pyrimidin-2-yl)amino)-5-ethoxy-2-ethylphenyl)piperidin-4-yl)piperazin-1-yl)ethyl)-3-ethyl-2-oxo-2,3-dihydro-1H-benzo[d]imidazol-1-yl)piperidine-2,6-dione], the DC50 in experiment [1] stood at 0.944 nM; in experiment [2], 3.72 nM. Besides, the “Dmax (%) H1975 # 28 DTC” value in experiment [1] is reported as 78.21%.

Turning to `CCOc1cc(N2CCC(N3CCN(CCc4c(C(F)(F)F)ccc5c4oc(=O)n5C4CCC(=O)NC4=O)CC3)CC2)c(CC)cc1Nc1ncc(Br)c(Nc2ccc3nc(CC)ccc3c2P(C)(C)=O)n1` (stereo not drawn) [Example 724, 3-(7-(2-(4-(1-(4-((5-bromo-4-((5-(dimethylphosphoryl)-2-ethylquinolin-6-yl)amino)pyrimidin-2-yl)amino)-5-ethoxy-2-ethylphenyl)piperidin-4-yl)piperazin-1-yl)ethyl)-2-oxo-6-(trifluoromethyl)benzo[d]oxazol-3(2H)-yl)piperidine-2,6-dione], in experiment [1], the DC50 was determined as 2.86 nM and the “Dmax (%) H1975 # 28 DTC” value is 75.94%. Besides, in experiment [2], the DC50 worked out at 55.1 nM and the Dmax came to 85.6%.

`CCc1cc(Nc2ncc(Br)c(Nc3ccc4nc(C)ccc4c3P(C)(C)=O)n2)c(OC)cc1N1CCC(N2CCN(CCOc3cccc4c3n(C)c(=O)n4C3CCC(=O)NC3=O)CC2)CC1` (stereo not drawn) [Example 683, 3-(4-(2-(4-(1-(4-((5-bromo-4-((5-(dimethylphosphoryl)-2-methylquinolin-6-yl)amino)pyrimidin-2-yl)amino)-2-ethyl-5-methoxyphenyl)piperidin-4-yl)piperazin-1-yl)ethoxy)-3-methyl-2-oxo-2,3-dihydro-1H-benzo[d]imidazol-1-yl)piperidine-2,6-dione]: in experiment [1], the DC50 amounted to 0.595 nM and the “Dmax (%) H1975 # 28 DTC” value turned out to be 75.35%. Moreover, in experiment [2], the DC50 turned out to be 1.11 nM and the maximal degradation (Dmax) worked out at 95.9%.

For `CCc1cc(Nc2ncc(Br)c(Nc3ccc4nc(CO)ccc4c3P(C)(C)=O)n2)c(OC)cc1N1CCC(N2CCN(C(=O)[C@@H]3CCN(c4cc(F)c(C5CCC(=O)NC5=O)c(F)c4)C3)CC2)CC1` (stereo partly drawn) [Example 696, 3-(4-((R)-3-(4-(1-(4-((5-bromo-4-((5-(dimethylphosphoryl)-2-(hydroxymethyl)quinolin-6-yl)amino)pyrimidin-2-yl)amino)-2-ethyl-5-methoxyphenyl)piperidin-4-yl)piperazine-1-carbonyl)pyrrolidin-1-yl)-2,6-difluorophenyl)piperidine-2,6-dione], in experiment [1], the DC50 was 0.647 nM and the “Dmax (%) H1975 # 28 DTC” value is reported as 75.49%. Moreover, in experiment [2], the DC50 amounted to 4.53 nM and the Dmax was determined as 92.3%.

Regarding `CCOc1cc(N2CCC(N3CCN(CCc4c(F)cc(F)c5c4oc(=O)n5C4CCC(=O)NC4=O)CC3)CC2)c(CC)cc1Nc1ncc(Br)c(Nc2ccc3nc(CC)ccc3c2P(C)(C)=O)n1` (stereo not drawn) [Example 731, 3-(7-(2-(4-(1-(4-((5-bromo-4-((5-(dimethylphosphoryl)-2-ethylquinolin-6-yl)amino)pyrimidin-2-yl)amino)-5-ethoxy-2-ethylphenyl)piperidin-4-yl)piperazin-1-yl)ethyl)-4,6-difluoro-2-oxobenzo[d]oxazol-3(2H)-yl)piperidine-2,6-dione], in experiment [1], the DC50 is 4.55 nM and the “Dmax (%) H1975 # 28 DTC” value was 93.44%. Moreover, the DC50 in experiment [2] turned out to be 42.5 nM.
